Results taken from patent US20260234099A1, “Endocannabinoid ligands and related analogs” (Northeastern University, priority 2023, published 2026).
Like-named read-outs stand apart in the source and are kept apart here.

Experiments:
[1] = target: CB2 receptor (hCB2) (Homo sapiens, UniProt P34972); experiment: cAMP assay (inhibition of FSK stimulated cAMP), CB2; format: cell-based; details: class symbols
Description: FIG. 2A is a graph providing data of the % inhibition of FSK stimulated cAMP for compound 6.1.1 for hCB2.
Further functional characterization of some of the disclosed compounds tested initially for “binding affinity” or for GTPγ-S binding was performed by using the cyclic adenosine monophosphate (cAMP) assay. Key compounds initially characterized functionally using the GTPγ-S assay were also doubly tested using the cAMP assay to unambiguously confirm their functional profiles. The functional potency of the compounds tested using the cyclase assay is also represented by the EC50 (cAMP) value and similarly the lower the EC50 (cAMP) value the higher the potency of the compound for the receptor. A detailed description of the methods used to test compounds using the cAMP assay is given in Yingpeng, et al. J. Med. Chem. (2018) 61, 8639-8657 the content of which is hereby incorporated by reference. The EC50 values (potency of a test compound) of the functional assays may or may not be accompanied by the E(max) value in tables 1-5 (efficacy of the test compound). E(max)/efficacy is the maximum GTP stimulation or cAMP inhibition levels and is presented as the percentage of maximum response evoked by a standard CB1/CB2 full agonist (e.g., CP-55,940) for reference see the paper cited above. If a test compound has an efficacy close to 100% of the standard full agonist, then the test compound is also classified as full agonist.

[2] = target: CB1 receptor (rCB1) (Rattus norvegicus, UniProt P20272); experiment: cAMP assay (inhibition of FSK stimulated cAMP), CB1; format: cell-based; details: for functional profile at CB1 (cAMP): full or partial agonist; for Emax: percentage of maximum response of standard full agonist (e.g., CP-55,940)
CB1 receptor (rCB1), sequence (P20272 whole entry): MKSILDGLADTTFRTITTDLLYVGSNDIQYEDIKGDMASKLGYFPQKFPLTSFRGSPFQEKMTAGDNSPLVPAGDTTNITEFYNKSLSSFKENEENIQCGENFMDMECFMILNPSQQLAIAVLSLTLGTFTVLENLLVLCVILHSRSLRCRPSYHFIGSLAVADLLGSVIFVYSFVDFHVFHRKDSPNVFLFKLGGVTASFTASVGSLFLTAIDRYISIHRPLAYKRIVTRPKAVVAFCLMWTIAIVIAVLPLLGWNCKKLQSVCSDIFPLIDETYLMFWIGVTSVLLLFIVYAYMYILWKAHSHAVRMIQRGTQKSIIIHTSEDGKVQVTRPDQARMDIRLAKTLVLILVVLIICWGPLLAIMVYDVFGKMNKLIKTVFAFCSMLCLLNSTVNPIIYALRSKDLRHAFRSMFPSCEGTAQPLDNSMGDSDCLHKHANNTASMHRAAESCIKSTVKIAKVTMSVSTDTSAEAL
Description: Further functional characterization of some of the disclosed compounds tested initially for “binding affinity” or for GTPγ-S binding was performed by using the cyclic adenosine monophosphate (cAMP) assay. […] A detailed description of the methods used to test compounds using the cAMP assay is given in Yingpeng, et al. J. Med. Chem. (2018) 61, 8639-8657 the content of which is hereby incorporated by reference. The EC50 values (potency of a test compound) of the functional assays may or may not be accompanied by the E(max) value in tables 1-5 (efficacy of the test compound). E(max)/efficacy is the maximum GTP stimulation or cAMP inhibition levels and is presented as the percentage of maximum response evoked by a standard CB1/CB2 full agonist (e.g., CP-55,940) for reference see the paper cited above.

[3] = target: CB2 receptor (Homo sapiens, UniProt P34972); experiment: CB2 receptor binding affinity (Ki); set-up: CB2 receptor Ki; CB2 receptor Ki (PMSF); other: with PMSF; details: read-out: CB2 receptor Ki
Description: (§1) Some disclosed compounds were tested for CB1 and CB2 receptor binding affinity (Tables 1, 2, 3, 4, 5). As used herein “binding affinity” is represented by the Ki value. The Ki value is the affinity constant and describes the affinity of the compound for the receptor. […] A detailed description of the methods used to test “binding affinity” of compounds is given in Makriyannis, et al., US 2007/0135388 the content of which is hereby incorporated by reference.

[4] = target: CB1 receptor (Rattus norvegicus, UniProt P20272); experiment: CB1 receptor binding affinity (Ki); details: for CB1 over CB2 preference: CB1 vs CB2, Tables 1 and 5; for binding affinity for CB1 receptor compared to endogenous AEA: vs AEA, Table 5
CB1 receptor, sequence (P20272 whole entry): as above
Description: as §1

[5] = with PMSF, read-out: CB1 Receptor Ki with PMSF
[6] = without PMSF, read-out: CB1 receptor affinity Ki

CB2 receptor (hCB2), sequence (P34972 whole entry): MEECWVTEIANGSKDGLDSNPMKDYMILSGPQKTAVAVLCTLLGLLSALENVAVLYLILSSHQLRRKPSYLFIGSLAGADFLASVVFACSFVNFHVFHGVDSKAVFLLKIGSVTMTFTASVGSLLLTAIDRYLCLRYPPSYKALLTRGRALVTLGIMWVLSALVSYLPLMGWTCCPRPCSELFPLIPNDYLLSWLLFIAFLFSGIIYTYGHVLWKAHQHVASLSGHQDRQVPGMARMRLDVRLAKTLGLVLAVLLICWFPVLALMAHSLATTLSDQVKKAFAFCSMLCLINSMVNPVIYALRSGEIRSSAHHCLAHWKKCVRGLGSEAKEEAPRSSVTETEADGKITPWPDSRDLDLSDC

Row | Structure (SMILES) | EC50 [1] [nM] | EC50 ([2]; class symbols) [nM] | Ki [4, 5] [nM] | other results
1 | C[C@H](/C=C\C/C=C\C/C=C\C1CC1C(=O)OC(CO)CO)/C=C\CCCCC(F)(F)F (single isomer, unassigned) [Compound 5.11.4] | 10 to 200 | 10 to 200 | – | –
2 | C[C@H](/C=C\C/C=C\C/C=C\C1CC1C(=O)OC(CO)CO)/C=C\CCCCC(F)(F)F (single isomer, unassigned) [Compound 5.11.8] | 10 to 200 | 0.01 to 10 | – | –
3 | C[C@H](/C=C\C/C=C\C/C=C\CCCC(=O)N[C@H](C)CO)/C=C\CCCCCOC1CCCCO1 (stereo partly shown) [Compound 4.1.3] | – | – | > 1000 | Ki [3]: > 1000 nM; Ki [4, 6]: > 1000 nM
4 | C[C@H](/C=C\C/C=C\C/C=C\CCCC(=O)N[C@H](C)CO)/C=C\CCCCCBr [Compound 4.1.4, (S,5Z,8Z,11Z,14Z)-20-Bromo-N—((R)-1-hydroxypropan-2-yl)-13-methylicosa-5,8,11,14-tetraenamide] | – | – | 0.01 to 10 | Ki [3]: 0.01 to 10 nM; Ki [4, 6]: 0.01 to 10 nM
5 | C[C@H](/C=C\C/C=C\C/C=C\CCCC(=O)N[C@H](C)CO)/C=C\CCCCCO[N+](=O)[O-] [Compound 4.1.5b, (S,6Z,9Z,12Z,15Z)-20-(((R)-1-Hydroxypropan-2-yl)amino)-8-methyl-20-oxoicosa-6,9,12,15-tetraen-1-yl Nitrate] | – | – | 0.01 to 10 | Ki [3]: 10 to 200 nM; CB1 over CB2 preference [4]: bind to and stimulate preferentially the CB1 receptors; Ki [4, 6]: 0.01 to 10 nM
6 | CCCCC/C=C\C/C=C\C/C=C\C/C=C\C1CC1C(=O)NCCO (stereo not shown) [Compound 4.2.2a, 2-((1Z,4Z,7Z,10Z)-Hexadeca-1,4,7,10-tetraen-1-yl)-N-(2-hydroxyethyl)cyclopropane-1-carboxamide] | – | – | – | Ki [3]: > 1000 nM; Ki [4, 6]: > 1000 nM
7 | CCCCC/C=C\C/C=C\C/C=C\C/C=C\C1CC(C(=O)NCCO)C1 (stereo not shown) [Compound 4.2.2c] | – | – | 200 to 1000 | Ki [3]: 200 to 1000 nM
8 | CCCCC/C=C\C/C=C\C/C=C\C/C=C\C1(CC(=O)NCCO)CCC1 [Compound 4.2.2d] | – | – | 200 to 1000 | –
9 | CCCCC/C=C\C/C=C\C/C=C\C/C=C\C1CC[C@@H](C(=O)NCCO)C1 (stereo partly shown) [Compound 4.2.2e] | – | – | 200 to 1000 | Ki [3]: 200 to 1000 nM
10 | CCCCC/C=C\C/C=C\C/C=C\C/C=C\C1CCC(C(=O)NCCO)CC1 (stereo not shown) [Compound 4.2.2f] | – | – | 200 to 1000 | Ki [3]: 200 to 1000 nM
11 | CCCCC/C=C\C/C=C\C/C=C\Cc1ccccc1CCCC(=O)NCCO [Compound 4.3.4, N-(2-Hydroxyethyl)-4-(2-((2Z,5Z,8Z)-tetradeca-2,5,8-trien-1-yl)phenyl)butanamide] | – | – | 10 to 200 | Ki [3]: 10 to 200 nM; binding affinity for CB1 receptor compared to endogenous AEA [4]: substantially higher binding affinities; Ki [4, 6]: 10 to 200 nM
12 | CCCCC/C=C\C/C=C\C/C=C\Cc1ccccc1CCCC(=O)N[C@H](C)CO [Compound 4.3.5, N—((R)-1-Hydroxypropan-2-yl)-4-(2-((2Z,5Z,8Z)-tetradeca-2,5,8-trien-1-yl)phenyl)butanamide] | – | – | 10 to 200 | Ki [3]: 10 to 200 nM; CB1 over CB2 preference [4]: bind to and stimulate preferentially the CB1 receptors; binding affinity for CB1 receptor compared to endogenous AEA [4]: substantially higher binding affinities; Ki [4, 6]: 0.01 to 10 nM
13 | CCCCC/C=C\[C@H](C)/C=C\C/C=C\Cc1ccccc1CCCC(=O)N[C@H](C)CO [Compound 4.5.3, N—((R)-1-hydroxypropan-2-yl)-4-(2-((S,2Z,5Z,8Z)-7-methyltetradeca-2,5,8-trien-1-yl)phenyl)butanamide] | – | – | 0.01 to 10 | binding affinity for CB1 receptor compared to endogenous AEA [4]: substantially higher binding affinities; Ki [4, 6]: 0.01 to 10 nM
14 | C[C@H](/C=C\C/C=C\C/C=C\CCCC(=O)NC(CO)CO)/C=C\CCCCCO[N+](=O)[O-] [Compound 5.1.6b] | 10 to 200 | 0.01 to 10 | – | –
15 | C[C@H](/C=C\C/C=C\C/C=C\CCCC(=O)NC(CO)CO)/C=C\CCCCCOC1CCCCO1 (stereo partly shown) [Compound 5.1.6c] | > 1000 | > 1000 | – | –
16 | CCCCC/C=C\C/C=C\C/C=C\C/C=C\C1CC1C(=O)OC(CO)CO (stereo not shown) [Compound 5.2.2a, 1,3-Dihydroxypropan-2-yl 2-((1Z,4Z,7Z,10Z)-hexadeca-1,4,7,10-tetraen-1-yl)cyclopropane-1-carboxylate] | – | 10 to 200 | – | –

Row | Structure (SMILES) | EC50 [1] [nM] | EC50 ([2]; class symbols) [nM] | Ki [4, 5] [nM] | other results
17 | CCCCC/C=C\C/C=C\C/C=C\C/C=C\C1CC1C(=O)OC(CO)CO (stereo not shown) [Compound 5.2.2b] | 10 to 200 | – | – | –
18 | CCCCC/C=C\C/C=C\C/C=C\C/C=C\C1CC(C(=O)OC(CO)CO)C1 (stereo not shown) [Compound 5.2.2c] | > 1000 | > 1000 | – | –
19 | CCCCC/C=C\C/C=C\C/C=C\C/C=C\C1(CC(=O)OC(CO)CO)CCC1 [Compound 5.2.2d] | > 1000 | 200 to 1000 | – | –
20 | CCCCC/C=C\C/C=C\C/C=C\C/C=C\C1CCC(C(=O)OC(CO)CO)CC1 (stereo not shown) [Compound 5.2.2f] | > 1000 | > 1000 | – | –
21 | CCCCC/C=C\[C@H](C)/C=C\C/C=C\C/C=C\CCCC(=O)OC(CO)CO [Compound 5.4.3c, 1,3-Dihydroxypropan-2-yl (S,5Z,8Z,11Z,14Z)-13-methylicosa-5,8,11,14-tetraenoate] | 0.01 to 10 | – | – | functional profile at CB1 (cAMP) [2]: full agonist; EC50 ([2]; numeric): 10.3 nM; Emax [2]: 99%
22 | CCCCC/C=C\[C@@H](C)/C=C\C/C=C\C/C=C\CCCC(=O)OC(CO)CO [Compound 5.4.3d, 1,3-Dihydroxypropan-2-yl (R,5Z,8Z,11Z,14Z)-13-methylicosa-5,8,11,14-tetraenoate] | 0.01 to 10 | – | – | functional profile at CB1 (cAMP) [2]: full agonist; EC50 ([2]; numeric): 4.1 nM; Emax [2]: 95%
23 | C[C@H](/C=C\C/C=C\C/C=C\C1CC1C(=O)OC(CO)CO)/C=C\CCCCCO[N+](=O)[O-] (stereo partly drawn) [Compound 5.7.3b, 1,3-dihydroxypropan-2-yl-2-((S,1Z,4Z,7Z,10Z)-9-methyl-16-(nitrooxy)hexadeca-1,4,7,10-tetraen-1-yl)cyclopropane-1-carboxylate] | – | 0.01 to 10 | – | –
24 | N#CCCCCC/C=C\C/C=C\C/C=C\C/C=C\C1CC1C(=O)OC(CO)CO (stereo not shown) [Compound 5.8.3a, 1,3-Dihydroxypropan-2-yl-2-((1Z,4Z,7Z,10Z)-16-cyanohexadeca-1,4,7,10-tetraen-1-yl)cyclopropane-1-carboxylate] | – | 10 to 200 | – | –
25 | O=C(OC(CO)CO)C1CC1/C=C\C/C=C\C/C=C\C/C=C\CCCCCO[N+](=O)[O-] (stereo not shown) [Compound 5.8.3b, 1,3-Dihydroxypropan-2-yl-2-((1Z,4Z,7Z,10Z)-16-(nitrooxy)hexadeca-1,4,7,10-tetraen-1-yl)cyclopropane-1-carboxylate] | – | 10 to 200 | – | –
26 | CCCCC/C=C\[C@H](C)/C=C\C/C=C\Cc1ccccc1CCCC(=O)OC(CO)CO [Compound 5.9.3] | > 1000 | > 1000 | – | –
27 | C[C@H](/C=C\C/C=C\C/C=C\[C@@H]1C[C@H]1C(=O)OC(CO)CO)/C=C\CCCCC(F)(F)F [Compound 5.12.1] | 10 to 200 | 10 to 200 | – | –
28 | C[C@H](/C=C\C/C=C\C/C=C\[C@H]1C[C@@H]1C(=O)OC(CO)CO)/C=C\CCCCC(F)(F)F [Compound 5.12.2] | 10 to 200 | > 1000 | – | –
29 | C[C@H](/C=C\C/C=C\C/C=C\[C@H]1C[C@H]1C(=O)OC(CO)CO)/C=C\CCCCC(F)(F)F [Compound 5.12.3, 1,3-dihydroxypropan-2-yl (1R,2R)-2-((S,1Z,4Z,7Z,10Z)-16,16,16-trifluoro-9-methylhexadeca-1,4,7,10-tetraen-1-yl)cyclopropane-1-carboxylate] | 10 to 200 | 0.01 to 10 | – | –
30 | C[C@H](/C=C\C/C=C\C/C=C\[C@@H]1C[C@@H]1C(=O)OC(CO)CO)/C=C\CCCCC(F)(F)F [Compound 5.12.4, 1,3-dihydroxypropan-2-yl (1S,2S)-2-((S,1Z,4Z,7Z,10Z)-16,16,16-trifluoro-9-methylhexadeca-1,4,7,10-tetraen-1-yl)cyclopropane-1-carboxylate] | 10 to 200 | 10 to 200 | – | –
31 | CCCCC/C=C\[C@H](C)/C=C\C/C=C\C/C=C\CCCOC(=O)C(C)(CO)CO [Compound 6.2.2, (S,4Z,7Z,10Z,13Z)-12-Methylnonadeca-4,7,10,13-tetraen-1-yl-3-hydroxy-2(hydroxymethyl)-2-methylpropanoate] | 10 to 200 | 10 to 200 | – | –
